In data set [1] the test system is C57BL/6 mice having an average age of 14-15 months. The data set is described as follows: Contextual serial discrimination test (model of episodic memory). It counts as in vivo. To be noted: for percentage of correct responses: chronic treatment for 9 days, middle-aged mice, carrier 26.4%. The source says:
The effects of 8-cyclopropyl-3-[2-(3-fluorophenyl)ethyl]-7,8-dihydro-3H-[1,3]oxazino-[6,5-g][1,2,3]benzotriazine-4,9-dione and of donepezil (the latter used in the form of a hydrochloride), administered on their own or in combination, were studied using a contextual serial discrimination test in C57BL/6 mice having an average age of 14-15 months (n=12 per group) (Célérier et al., Learn Mem. 2004, 11(2), 196-204; Tronche et al., Behav. Brain Res. 2010, 215(2), 255-260).
The mice, placed in a high-sided box, learn two types of consecutive spatial discriminations (D1: white floor then D2: black floor) on a floor having four holes, in which only one of the holes is baited, opposite holes being baited in D1 and D2. Each discrimination is performed on a specific floor (white or black), which constitutes the internal context specific to each discrimination. Twenty-four hours after the learning step, the mice are returned to the white contextual floor and the following parameters are measured: • the percentage of correct responses (i.e. % of head dips in the hole that had been baited during the acquisition exercise on the white floor), • the percentage of interfering responses (i.e. % of head dips in the hole that had been baited during the acquisition exercise on the black floor, the last context presented to the mice), • and the percentage of errors (i.e. % of head dips in the two holes that had not been baited during the acquisition, either on the white floor or on the black floor) (see FIG. 1).

The subject of data set [2] is 3-month-old C57BL/6 mice. Description: Excitatory post-synaptic potentials (EPSP) induced by electrical stimulation in alert mice (perforant pathway / dentate gyrus of the hippocampus). It counts as in vivo. Conditions: single dose p.o.: Compound S 3 mg/kg, rivastigmine 0.03 mg/kg, alone or in association.
Source text: Studying EPSPs induced by electrical stimulation in alert mice makes it possible to study physiologically an electrophysiological phenomenon which is the basis of neuronal activity and connected to the processes of memorisation and learning.
3-month-old C57BL/6 mice are anaesthetised with 0.8-3% halothane delivered by means of a mask. Once anaesthetised, stimulation and recording electrodes are inserted, respectively, in the perforant pathway and the dentate gyrus of the hippocampus of the animals. Following implantation of the electrodes, the mice are kept in cages for from 5 to 7 days with free access to food and water in order to allow complete recovery. Each implanted animal is alone in a cage until the end of the experiment.
After recovery, a stable baseline of evoked responses is induced using paired pulses (pulse duration 100 μs, negative-positive) administered at 3 pulses/minute to the stimulation electrode situated in the perforant pathway. The intervals between pulses are fixed at 40 ms (Gruart et al., J. Neurosci. 2006, 24, 1077-1087). The field EPSPs are monitored until a stable baseline is obtained (for 30 minutes). The products or the carrier are then administered, and the evoked field potentials are recorded. […] The evoked potentials are then recorded for approximately 2.5 hours after the last administration of compound or carrier.
For data set [3], the system named is C57BL/6 mice. The data set is described as follows: Irwin's primary observation test. To be noted: on its own. As for the experimental part:
The effects in terms of safety of 8-cyclopropyl-3-[2-(3-fluorophenyl)ethyl]-7,8-dihydro-3H-[1,3]oxazino[6,5-g][1,2,3]benzotriazine-4,9-dione and of donepezil (the latter in the form of a hydrochloride), administered on their own or in association, were studied using Irwin's primary observation test in C57BL/6 mice (n=4 individuals per group). Behavioural changes, physiological and neurotoxic symptoms, rectal temperature and also pupil diameter were recorded using a standardised observation grid derived from that of Irwin.

Regarding `O=C1c2cc3nnn(CCc4cccc(F)c4)c(=O)c3cc2OCN1C1CC1` [Compound S, 8-cyclopropyl-3-[2-(3-fluorophenyl)ethyl]-7,8-dihydro-3H-[1,3]oxazino[6,5-g][1,2,3]benzotriazine-4,9-dione], the “percentage of correct responses” value is recorded as 43.7% in data set [1] (0.1 mg/kg per os) and 48% in data set [1] (0.3 mg/kg per os). Besides, in data set [1] (doses of 0.1 and 0.3 mg/kg per os, 9 days, significant), the “increase in level of correct responses relative to the carrier” value is listed as “more than 40%”. In addition, in data set [2], the “amplitudes of the field EPSPs relative to the carrier group” value is on record as “does not induce a significant modification”.

Consider `CCN(C)C(=O)Oc1cccc([C@H](C)N(C)C)c1` [rivastigmine], for which the “amplitudes of the field EPSPs relative to the carrier group” value in data set [2] is reported as “does not induce a significant modification”.

Turning to `COc1cc2c(cc1OC)C(=O)C(CC1CCN(Cc3ccccc3)CC1)C2` (stereo not drawn) [donepezil], the “change in percentage of correct responses relative to the carrier” value in data set [1] (0.1 mg/kg of base per os, 9 days) is “slight non-significant increase”. Also, the “percentage of correct responses” value in data set [1] (0.1 mg/kg per os) amounted to 35.5%. Besides, the “change according to the standardised observation grid” value is “do not induce any change” in data set [3] (0.3 and 1 mg/kg of base per os, acute); “induces shaking, slight to moderate sedation, a loss of muscle tone and a decrease in reactivity to touch” in data set [3] (3 and 10 mg/kg of base per os).

Source of the values: patent US20170027949A1, “ASSOCIATION BETWEEN 8-CYCLOPROPYL-3-[2-(3-FLUOROPHENYL)ETHYL]-7,8-DIHYDRO-3H-[1,3]OXAZINO[6,5-g][1,2,3]BENZOTRIAZINE-4,9-DIONE AND AN ACETYLCHOLINESTERASE INHIBITOR, AND PHARMACEUTICAL COMPOSITIONS CONTAINING IT” (priority 2014, published 2017).
